Source: US7005537B2, “Production of esters” (ExxonMobil Chemical Patents Inc., priority 1999, dated 2006)

Key:
Type in all cases: physicochemical
[1] = Fluid solvent properties
From the text: One of ordinary skill in the art can readily determine the flash point of a fluid or blend (e.g., ASTM D92-78).

[2] = Stability of solvent to acid catalyst (pTSA) in acrylic solvent system, GC; conditions: for Wt. % of Solvent At One Week Decomposition Period / Wt. % of Solvent At Three Week Decomposition Period: 0.5 wt % pTSA, 50° C., nitrogen, 100 at start of test
Procedure: Acrylic solvent systems were prepared to test the stability of methyl pivalate to acid catalysts, which are commonly present in coating compositions. The formulations contained 29.9 wt % MP, 28.7 wt % pentyl acetate, 20.2 wt % n-butyl acetate, 16.1 wt % n-butyl alcohol, 3.6 wt % methyl ethyl ketone, 1.5 wt % isopropyl alcohol. 2 wt % toluene as an internal standard. The latter materials were purchased from Aldrich Chemical Co.
Para toluene sulfonic acid (pTSA) was added to the above formulation (again, pTSA was purchased from Aldrich Chemical Co.), in the amount of 0.5 wt %. The solutions were sealed and placed in an oven at 50° C. under a nitrogen atmosphere. Samples were withdrawn at intervals for testing. The content of methyl pivalate was monitored over time by gas chromatographic analysis using an HP 5890 gas chromatograph. In a parallel experiment an equal amount of tert butyl acetate was used instead of methyl pivalate. The results are shown below in Table 7 (all percentages are by weight).

[3] = Reid Vapor Pressure
From the text: The invention also includes producing a gasoline fuel containing an ester for use in internal combustion engines, wherein the ester has a Reid Vapor Pressure less than about 4 pounds per square inch. An important factor in determining a compound's ozone formation potential includes the compound's vapor pressure. Compounds with relatively high vapor pressures are more likely to volatilize into the atmosphere from open sources. Potential open sources include, for example, sources from production, distribution, storage and/or combustion of fuels containing oxygenates. The C7 to C14 esters according to the invention are expected to have low vapor pressures in comparison to MTBE and some other oxygenates. Preferably, the esters have a RVP less than about 3.5 psi. More preferably, less than about 3.0 or 2.0 psi. For example, Methyl Pivalate has a Reid Vapor Pressure of about 1.6 psi.

Structure (SMILES)	Hansen Solubility Parameter H-Bonding [1]	Hansen Solubility Parameter Nonpolar [1]	Hansen Solubility Parameter Polar [1]	Hansen Solubility Parameter Total [1]	Surface Tension [1]	Flash Point [1] [°C]	stability to acid catalysts (in words) [2]	Wt. % of Solvent At One Week Decomposition Period [2] [Wt. %]	Wt. % of Solvent At Three Week Decomposition Period [2] [Wt. %]	Reid Vapor Pressure [3]
CC(C)=O [Acetone]	3.4	7.6	5.1	9.2	22.3					
COC(=O)C(C)(C)C [Methyl Pivalate, methyl pivalate (methyl 1,1,1-trimethyl acetate)]					23.8	7	more stable to acid catalysts than is t-butyl acetate	88.0	65.1	about 1.6 psi
CC(=O)OC(C)(C)C [t-butyl acetate, tertiary butyl acetate]							not inert with respect to acids	65.9	24.1	
